Results from publication doi:10.1101/2024.02.22.581678v1 (biorxiv, 2024).

molecular target: MeAmi_SBP; experiment: isothermal analysis of ligand-titrated DSF; format: binding, Mesorhizobium sp.; conditions: 50 mM Tris, 300 mM NaCl, pH 7.4; 8.4 μM His6-tagged protein; one-site model

Kd	SMILES
1530 nM	C[C@H](N)C(N)=O [L-alaninamide]
187 nM	NC(=O)[C@@H](N)Cc1ccc(O)cc1 [L-tyrosinamide]
49700 nM	NCC(N)=O [glycinamide]
